Where two headings read alike, the source gives them in different places.
Assays:
[1] = test system: B-cells isolated from PBMC's; assay: Chymotrypsin-like ProteasomeGlo assay in B-cells isolated from PBMCs; format: cell-based, human
Text: PBMC's will be isolated from human blood followed by B-cell isolation from the PBMC's using the Miltenyi Isolation Kit. • 2. This experiment will use the Chymotrypsin-like ProteasomeGlo read-out to generate IC50's following compound treatment. • 3. Dilute all compounds 1:100 for the assay. • 4. […] Repeat the DMSO transfer with lane 12. • 5. Lane 12 should not be seeded with any cells. Only medium! • 6. For all steps, make sure the samples and reagents remain cool! • 7. While dealing with the buffy coats, be careful to not let any exposed skin to be in direct contact with the blood. […] PBMC isolation followed by B-cell isolation using the Miltenyi Kit • Day 2: B-cell plating, ECHO transfer and ProteasomeGlo assay For the initial steps and to make processing the buffy coats easier, separately process the buffy coats. • a. Cut the tube attached to the buffy coats carefully using a clean, sterile and fresh scalpel. • b. Transfer the blood into 2 individual 50 ml falcons. • c. Add an equal volume of DPBS to the blood in the falcons. • d. Add 20 ml of lymphocyte separating medium to two 50 ml falcons. • e. Carefully pour 15-20 ml of the blood+DPBS mix from step c. onto the lymphocyte separating medium from step d. • f. Centrifuge the falcons with the lymphocyte separating medium+blood mix at 800×g for 15 minutes using a swing-out rotor. • g. Following centrifugation, carefully remove the falcons from the centrifuge. • h. The following layers will be observed: • i. Aspirate the plasma layer off carefully without disturbing the different layers. • j. Remove the cell pellet using a pipette into two fresh 50 ml falcons. • k. Fill the falcons with the cells up to 50 ml with DPBS. • l. Centrifuge the falcons at 250×g for 10 minutes using a swing-out rotor (Brake-off). • m. Aspirate the complete DPBS off the cells without disturbing the cell pellet at the bottom of the falcon. • n. Re-suspend the cell pellet in 10 ml of 1×RBC lysis buffer. • o. Incubate the falcons at room temperature in the dark for 10 minutes. • p. After RBC lysis, centrifuge the tubes at 250×g for 10 minutes using a swing-out rotor (brake-off). • (*Note: If the cell pellet is still red or light red, repeat steps n. to p.!) • q. Re-suspend the cell pellet in DPBS up to 50 ml in the falcon. • r. Centrifuge the falcons at 250×g for 10 minutes using a swing-out rotor (Brake-off). • s. Aspirate the DPBS off the cells without disturbing the cell pellet at the bottom of the falcon. • t. Repeat the wash step as described in steps q. to s. 2× times more (total number of washes is 3×). • u. Aspirate the DPBS completely off the cell pellet after the last wash without disturbing the cell pellet. • v. Re-suspend the cell pellet in 20 ml of PBMC cell medium. • w. […] Re-suspend the pellet in volume of the B-cell isolation buffer calculated as follows: • k. Mix well using a 1 ml pipette and incubate the mix on ice for 20 mins. • l. In the meantime, equilibrate one LS Column as follows: • 1. Insert one LS Column into one slot of the separator as depicted in the pictures above. • 2. Place a 50 ml falcon at the bottom of the LS column to collect the wash flow-through. • 3. Add 3 ml of the B-cell isolation buffer into the column. • 4. Allow the buffer to flow-through making sure that the entire volume passes the column and that the column reservoir is empty before the addition of the cells. • 5. Remove the falcon with the flow-through and discard. • m. Place a fresh 50 ml falcon under the LS Column to collect the untouched B-cells isolated from the PBMCs. • n. Apply the entire volume of the cell+antibody+microbeads mix to the LS Column. • o. Collect the flow-through from each application of the mix into the same 50 ml falcon under the LS Column. • p. Once the complete volume of the cell+antibody+microbead mix has been passed through, proceed to washing of the column. • q. Add 3 ml of the B-cell isolation buffer to the LS Column and allow the buffer to flow-through. […]

Karpas cells = assay: Glo assay of Karpas cells (Table 3; ProteasomeGlo plating scheme); format: cell-based; conditions: read-out: Pglo Karpas
Text: Inhibition is indicated as IC50 [nM] (“-”=not measured). […] • Chymotrypsin-Like Cell-Based Proteasome-GloTM Assay (Promega; […]) • Cell culture 384-well plates (Greiner BioOne; 781080) • Dispensing cassette, MultiDrop Standard tube dispensing cassette (Thermo Scientific; 24072670) • DPBS (Pan BioTech; P04-36500) • Cell culture 384-well plates (Greiner BioOne; 781080) • CPD source plate: diamond-shape plate (Labcyte; LP-0200) • Intermediate plate (Labcyte; P-05525) [table] • a. Remove the plates with cells from the incubator. • b. Take all the plates including the compound plate, intermediate plate and Staurosporine plate to the ECHO. • c. Click on “Open” in the ECHO software and select the protocol “QLI5_25ul_30 uM-Grenier”. • d. Follow the on-screen prompts and instructions once you click “Start” to insert the compound plate, intermediate plate and destination plates. • e. Change the final number of destination plates on the program. • f. Follow the on-screen prompts and instructions once you click “Start” to load the Staurosporine and destination plates. • g. Once all the compounds, DMSO and Staurosporine have been transferred, place the destination plates in a wet tissue box. • h. Place the destination plates back into the incubator and incubate at 37° C., 5% CO2 for 105 minutes. • i. Re-seal all the compound+Stauro diamond and intermediate plates and store in the dark. Chymotrypsin like ProteasomeGlo Assay • 1. Thaw the components of the ProteasomeGlo assay at room temperature including the ProteasomeGlo Buffer, the lyophilized Luciferin Detection Reagent and the Suc-LLVY-Glo Substrate. • 2. Reconstitute the Luciferin Detection Reagent in the amber coloured bottle by adding 50 ml of the ProteasomeGlo Buffer. • 3. Vortex the Suc-LLVY-Glo Substrate briefly to reconstitute the Substrate well. • 4. Spin down the Substrate and add 250 μl of the Substrate to the reconstituted Luciferin Detection Reagent from step 2. • 5. Briefly vortex the amber bottle with the mix to prepare a homogenous solution. • 6. Place the mix prepared in step 5 to sit at room temperature for 60 minutes. • 7. After 60 minutes, pipette 25 μl of the mix from step 5 into all wells with the cells. • 8. Shake the plates for 2-5 minutes to ensure the complete mixing of the ProteasomeGlo reagent with the cells. • 9. Leave the plates in the dark for 10-15 minutes. • 10. Measure the luminescence read-out using the Viktor and the protocol “Luminescence_384Well_0.2 sec”. (Note: The Protoeasome-GloTM Reagent (combined Proteasome-GloTM Substrate, Proteasome-GloTM Buffer and Luciferin Detection Reagent) can be stored at 4° C. or -20° C. for 1 month with minimal loss of activity.)

PBMC = PBMC IL 17 stim. (Table 4, method not given); format: cell-based
[2] = from Cc1ccc(OCCC2CCCNC2)cc1CNC(=O)[C@H](CCc1ccccc1)NC(=O)[C@H](CC(=O)O)NC(=O)OCc1ccccc1; amide bond; HATU; DMF; 252.0 mM; 25.0 °C; 2 steps
[3] = Homo sapiens, B-cells isolated from PBMC's, read-out: Pglo B-Cell

SMILES | IC50 [1, 3] [nM] | also measured
Cc1ccc2cc1CNC(=O)[C@H](CCc1ccccc1)NC(=O)[C@@H](Nc1ncccn1)CC(=O)N1CCCC(CCO2)C1 (stereo partly drawn) [Compound 34, (9S,12S)-5^4-methyl-9-phenethyl-12-(pyrimidin-2-ylamino)-4-oxa-7,10-diaza-1(3,1)] |  | IC50 ([1]; Homo sapiens, read-out: Pglo B-Cell [nM]): < 100 nM
CC(=O)N[C@H]1CC(=O)N2CCCC(CCOc3ccc(C)c(c3)CNC(=O)[C@H](CCc3ccccc3)NC1=O)C2 (stereo partly drawn) [Compound 33, N-((9S,12S)-5^4-methyl-8,11,14-trioxo-9-phenethyl-4-oxa-7,10-diaza-1(3,1)-piperidina-5(1,3)-benzenacyclotetradecaphane-12-yl)acetamide] | < 100 | 
Cc1ccc2cc1CNC(=O)[C@H](CCc1ccccc1)NC(=O)[C@@H](NC(=O)Cc1ccccc1C)CC(=O)N1CCCC(CCO2)C1 (stereo partly drawn) [Compound 373, N-((9S,12S)-5^4-methyl-8,11,14-trioxo-9-phenethyl-4-oxa-7,10-diaza-1(3,1)-piperidina-5(1,3)-benzenacyclotetradecaphane-12-yl)-2-(o-tolyl)acetamide] | < 100 | IC50 (Karpas cells): < 0.1 µM
Cc1ccc2cc1CNC(=O)[C@H](CCc1ccccc1)NC(=O)[C@@H](NC(=O)Cc1ccccc1)CC(=O)N1CCCC(CCO2)C1 (stereo partly drawn) [Compound 29, N-((9S,12S)-5^4-methyl-8,11,14-trioxo-9-phenethyl-4-oxa-7,10-diaza-1(3,1)-piperidina-5(1,3)-benzenacyclotetradecaphane-12-yl)-2-phenylacetamide] | < 100 | IC50 (PBMC): < 0.1 µM
Cc1ccc2cc1CNC(=O)[C@H](CCc1ccccc1)NC(=O)[C@@H](NC1COC1)CC(=O)N1CCCC(CCO2)C1 (stereo partly drawn) [Compound 35, (9S,12S)-5^4-methyl-12-(oxetan-3-ylamino)-9-phenethyl-4-oxa-7,10-diaza-1(3,1)-piperidina-5(1,3)-benzenacyclotetradecaphane-8,11,14-trione] | < 100 | 
Cc1ccc2cc1CNC(=O)[C@H](CCc1ccccc1)NC(=O)[C@@H](NC(=O)OCc1ccccc1)CC(=O)N1CCCC(CCO2)C1 (stereo partly drawn) [Compound 7, benzyl ((9S,12S)-5^4-methyl-8,11,14-trioxo-9-phenethyl-4-oxa-7,10-diaza-1(3,1)-piperidina-5(1,3)-benzenacyclotetradecaphane-12-yl)carbamate] |  | ring closure, yield of all isomers [2]: 68.9%
Cc1ccc2cc1CNC(=O)[C@H](CCc1ccccc1)NC(=O)[C@@H](NC(=O)c1ncccn1)CC(=O)N1CCCC(CCO2)C1 (stereo partly drawn) [Compound 32, N-((9S,12S)-5^4-methyl-8,11,14-trioxo-9-phenethyl-4-oxa-7,10-diaza-1(3,1)-piperidina-5(1,3)-benzenacyclotetradecaphane-12-yl)pyrimidine-2-carboxamide] | < 100 | 
Cc1ccc2cc1CNC(=O)[C@H](CCc1ccccc1)NC(=O)[C@@H](NC(=O)c1nc3ccccc3[nH]1)CC(=O)N1CCCC(CCO2)C1 (stereo partly drawn) [Compound 31, N-((9S,12S)-5^4-methyl-8,11,14-trioxo-9-phenethyl-4-oxa-7,10-diaza-1(3,1)-piperidina-5(1,3)-benzenacyclotetradecaphane-12-yl)-1H-benzo[d] imidazole-2-carboxamide] | < 100 | 
Cc1ccc2cc1CNC(=O)C(CCc1ccccc1)NC(=O)C(NC(=O)CCc1ccccc1)CC(=O)N1CCCC(CCO2)C1 [Compound 30, N-((9S,12S)-5^4-methyl-8,11,14-trioxo-9-phenethyl-4-oxa-7,10-diaza-1(3,1)-piperidina-5(1,3)-benzenacyclotetradecaphane-12-yl)-3-phenylpropanamide] |  | IC50 ([1]; B-cells isolated from PBMC's, read-out: Pglo B-Cell): < 100 nM
Cc1ccc2cc1CNC(=O)[C@H](CCc1ccccc1)NC(=O)[C@@H](NC(=O)CC(C)(C)C)CC(=O)N1CCCC(CCO2)C1 (stereo partly drawn) [Compound 28, 3,3-dimethyl-N-((9S,12S)-5^4-methyl-8,11,14-trioxo-9-phenethyl-4-oxa-7,10-diaza-1(3,1)-piperidina-5(1,3)-benzenacyclotetradecaphane-12-yl)butanamide] |  | IC50 (Karpas cells): < 0.1 µM
Cc1ccc2cc1CNC(=O)[C@H](CCc1ccccc1)NC(=O)[C@@H](NC(=O)C(C)(C)C)CC(=O)N1CCCC(CCO2)C1 (stereo partly drawn) [Compound 27, N-((9S,12S)-5^4-methyl-8,11,14-trioxo-9-phenethyl-4-oxa-7,10-diaza-1(3,1)-piperidina-5(1,3)-benzenacyclotetradecaphane-12-yl)pivalamide] | < 100 | IC50 (PBMC): < 0.1 µM

From patent US20240415819A1, “MACROCYCLIC COMPOUNDS AS PROTEASOME SUBUNIT BETA TYPE-5 INHIBITORS” (Lead Discovery Center GmbH, priority 2021, published 2024)
